Assay results published in patent publication US6858402B2 (The Regents of the University of California, priority 1996, dated 2005).

Columns and labels:
[1] = tested on: soluble p75 and p55 TNF-R; settings: Crowe et al. (1995); Mullberg et al. (1995); cited from earlier work
THP-1 cells [2] = assay: Induction of TRRE by PMA stimulation, TRRE assay of supernatant; type: cell-based, human
Method: THP-1 cells growing in logarithmic phase were collected and resuspended to 1×10^6 cells/ml of RPMI-1640 supplemented with 1% FCS and incubated with 10^−6 M PMA for 30 min in 5% CO2 at 37° C. The cells were collected and washed once with serum-free medium to remove PMA and resuspended in the same volume of RPMI-1640 with 1% FCS. After 2 hours incubation in 5% CO2 at 37° C., the cell suspension was collected, centrifuged, and the cell-free supernatant was collected as the TRRE-containing sample.
Briefly, C75R and COS-1 cells were seeded at 2.5×10^5 cells/ml/well in a 24-well culture plate and incubated in 5% CO2 at 37° C. for 12 to 16 hours. […] Simultaneously, C75R was incubated with 300 μl of fresh medium or buffer. At the end of the incubation period, the samples from each well were collected and the levels of soluble p75 TNF-R were measured by ELISA.
(§1) C75R cells and COS-1 cells were seeded into 24-well culture plates at a density of 2.5×10^5 cells/ml/well and incubated overnight (for 12 to 16 hours) in 5% CO2 at 37° C. […] (corresponding to A and C mentioned below, respectively). Simultaneously, C75R cells in 24-well plates were also incubated with 300 μl of fresh medium or buffer (corresponding to B mentioned below). The supernatants were collected, centrifuged, and then assayed for the concentration of soluble p75 TNF-R by ELISA as described above.
(§2) The stimulated cells were washed with serum-free medium and resuspended in the same volume of PMA-free medium with 1% FCS for 2 more hours in 5% CO2 at 37° C.
(§3) Suspension cell lines including THP-1, U-937, HL-60, Raji and K-562 at a density of 1×10^6 cells/ml were stimulated in RPMI-1640/1% FCS-with 10^−6 M PMA for 30 min in 5% CO2 at 37° C. After pelleting the cells and discarding the supernatants, the cells were washed once with serum-free medium and then incubated for 2 more hours at the same density of 1×10^6 cells/ml in PMA-free RPMI-1640/1% FCS. Adherent cell lines including ME-180 and MRC-5 were seeded in 100 mm cell culture plates with RPMI-1640/10% FCS-at a density of 6×10^6 cells/10 ml/plate in 5% CO2 at 37° C. overnight. After discarding the medium from the 100 mm plates, these adherent cells were stimulated in 6 ml of RPMI-1640/1% FCS with 10^−6 M PMA (at an approximate density of 1×10^6 cells/ml) for 30 min in 5% CO2 at 37° C. Following washing of the plates with serum-free medium 3 times, the cells were incubated for 2 more hours in 6 ml of PMA-free RPMI-1640/1% FCS.
THP-1 cells were stimulated with 10−6 M PMA in RPMI-1640 with 1% FCS for 30 min.
THP-1 cells at a density of 1×10^6 cells/ml were stimulated in 1% FCS-contained RPMI-1640 with 10^−6 M PMA for 30 min at 37° C. in 5% CO2. After washing the cells with serum-free medium to remove PMA, the cells were incubated in the same volume of 1% FCS-contained RPMI-1640 without PMA for 2 hours at 37° C. in 5% CO2. Then the cells were centrifuged down and the supernatant was collected for TRRE assay. These pelleted cells were again resuspended in 1% FCS-contained RPMI-1640 with or without 10^−6 M PMA and incubated for 30 min at 37° C. in 5% CO2. After washing the cells with serum-free medium to remove PMA, the cells, stimulated or non-stimulated by PMA, were incubated in the same volume of 1% FCS-contained RPMI-1640 without PMA for 2 and 4 hours each at 37° C. in 5% CO2.

[3] = tested on: human peripheral blood monocytes; assay: as above; type: cell-based; settings: for TRRE Activity (U): Human Monocyte
Method: as §1
Mononuclear cells were harvested at the interface of an isotonic Ficoll cushion (specific gravity, 1.05) from a Leukopac obtained from normal healthy volunteers according to the manufacturer's instructions (Sigma). Then monocytes were isolated by counterflow centrifugal elutriation with a Beckman JE-5.0 system. On average, the purity of the monocyte fraction was over 95%, as judged by morphologic examination and nonspecific esterase staining, and viability was over 98% as assessed by the trypan blue dye exclusion test.
as §2

HL-60 = assay: as above; type: cell-based, human; settings: HL-60, 10^−6 M PMA
From the text: (§4) THP-1 (a human monocytic leukemia cell line), U-937 (a human histiocytic lymphoma cell line), HL-60 (a human promyelocytic leukemia cell line), Raji (a human Burkitt lymphoma cell line) and K-562 (a human myelogenous leukemia cell line), which grow in suspension, and ME-180 (a human epidermoid carcinoma cell line) and MRC-5 (a human lung fibroblast cell line), which grow adherently, were purchased from American Type Culture Collection (Rockville, Md.). These cell lines were passed twice a week in RPMI-1640/10% heat-inactivated FCS.
as §3

K-562 = assay: as above; type: cell-based, human; settings: K-562, 10^−6 M PMA
From the text: as §4, §3

ME-180 = assay: as above; type: cell-based, human; settings: ME-180, 10^−6 M PMA
From the text: as §4, §3

MRC-5 = assay: as above; type: cell-based, human; settings: MRC-5, 10^−6 M PMA
From the text: as §4, §3

Raji = assay: as above; type: cell-based, human; settings: 10^−6 M PMA
From the text: as §4, §3

U-937 = assay: as above; type: cell-based, human; settings: U-937, 10^−6 M PMA
From the text: as §4, §3

THP-1 cells [4] = assay: as above; type: cell-based, human; settings: for TRRE Activity (U/ml): THP-1, 10^−6 M PMA 30 min
TNF [5] = settings: Shohami et al. (1997); cited from earlier work
[6] = Bauditz et al. (1997); cited from earlier work
TNF [7] = settings: in vitro and in vivo; Solorzano et al. (1997); cited from earlier work

## TAPI
[1]
  shedding of soluble p75 and p55 TNF-R: blocks the shedding

## CCCCCCCCCCCCCC(=O)O[C@@H]1[C@@H](C)[C@@]2(O)[C@@H](C=C(CO)C[C@]3(O)C(=O)C(C)=C[C@@H]23)[C@@H]2C(C)(C)[C@]12OC(C)=O [PMA, phorbol 12-myristate 13-acetate]
THP-1 cells [2]; PMA-stimulated THP-1, 1% FCS
  TRRE produced (FIG. 10A): 2,096 U/ml
THP-1 cells [2]; THP-1, 10^−6 M PMA
  TRRE (U/ml/10^6 cells): 2,884 U/ml/10^6 cells
THP-1 cells [2]; THP-1, 10^−6 M PMA 30 min, then 2 hours PMA-free
  TRRE release: 1,304 U/ml
THP-1 cells [2]; THP-1, 10^−6 M PMA 30 min, then 2 hours PMA-free with 1% FCS
  TRRE Activity (U/ml): 1,356 U/ml
THP-1 cells [2]; THP-1, PMA 10^−6 M
  TRRE Activity (U): 1,304 U
THP-1 cells [2]; THP-1, after first PMA stimulation, no second PMA, 2 hours and 4 hours
  TRRE released: no TRRE activity
THP-1 cells [2]; THP-1, first stimulation of PMA
  TRRE released: 951 U/ml
THP-1 cells [2]; THP-1, second PMA stimulation 30 min, additional 2 hours PMA-free
  TRRE released: 1,245 U/ml
THP-1 cells [2]; THP-1, second PMA stimulation 30 min, additional 4 hours PMA-free
  TRRE released: 1,044 U/ml
[3]; PMA 10^−6 M
  TRRE Activity (U): 883 U
[3]; PMA 10^−7 M
  TRRE Activity (U): 51 U
[3]; human monocytes, 10^−6 M PMA 30 min, then 2 hours PMA-free
  TRRE release: 883 U/ml
[3]; monocytes, 10^−8 M PMA
  TRRE induction: did not induce any TRRE
HL-60
  TRRE (U/ml/10^6 cells): 3,144 U/ml/10^6 cells
K-562
  TRRE (U/ml/10^6 cells): 3,356 U/ml/10^6 cells
ME-180
  TRRE (U/ml/10^6 cells): 1,694 U/ml/10^6 cells
MRC-5
  TRRE (U/ml/10^6 cells): 1,477 U/ml/10^6 cells
Raji
  TRRE (U/ml/10^6 cells): 2,390 U/ml/10^6 cells
U-937
  TRRE (U/ml/10^6 cells): 3,288 U/ml/10^6 cells
THP-1 cells [4]; PMA-stimulated THP-1, 0% FCS
  TRRE produced (FIG. 10A): 217 U/ml
THP-1 cells [4]; then 2 hours PMA-free with 0% FCS
  TRRE Activity (U/ml): 224 U/ml
THP-1 cells [4]; then 2 hours PMA-free with 10% FCS
  TRRE Activity (U/ml): 2,275 U/ml
THP-1 cells [4]; THP-1, 10^−8 M PMA
  TRRE induction: did not induce any TRRE
THP-1 cells [4]; THP-1, PMA 10^−7 M
  TRRE Activity (U): 368 U

## CCCCCCC(C)(C)c1cc(O)c2c(c1)OC(C)(C)[C@H]1CC=C(CO)C[C@H]21 [dexanabinol]
TNF [5]
  protection against TNF following traumatic brain injury: provided protection

## CC(=O)CCCCn1c(=O)c2c(ncn2C)n(C)c1=O [oxpentifylline]
[6]
  course of Crohn's disease: did not alter the course

## CNC(=O)[C@H](Cc1c[nH]c2ccccc12)NC(=O)[C@@H](CC(=O)NO)CC(C)C [GM-6001]
TNF [7]
  release of TNF: prevents the release of TNF
